Where a SMILES comes first, the peptide text is derived from it. [ ]: non-standard residue; d: D form. The star is where a group is joined. Palmitoyl = CCCCCCCCCCCCCCCC(=O)*; Dap = NC[C@H](N)C(=O)O
Key:
[1] = tested on: LA-N-5 human neuroblastoma cells; experiment: Cell viability / cell death by MTT assay; assay type: cell-based
Procedure: Cells were plated in 24-well culture plates containing 500 μl media. After drug treatment, 50 μl MTT (5 mg/ml in PBS) was added and incubated for 20 min at 37° C. An aliquot of 500 μl of 10% sodium dodecyl sulfate in 0.01 N HCl was added. After incubating overnight, the absorbance at 570 nm was determined by spectrophotometry. Cell viability was calculated as percent cell survival by dividing absorbance [treatment-blank] by absorbance [control-blank], where treatment is the reading for the treated cells, control is for vehicle-treated cells and blank is for MTT added to the media without cells.
LA-N-5 human neuroblastoma cells were grown in DMEM supplemented with 10% fetal bovine serum and 1% gentamicin. […] Cell death was measured by the MTT method (Cho et al., 2000a; Cho et al., 2000b; Cho et al., 2000c).

caspase 3 = experiment: Caspase 3-like activity (DEVD-AFC) in LA-N-5 cells; assay type: cell-based, human; settings: LY-294002 30 μM, C2 ceramide 25 μM
Procedure: Cells treated with drug or vehicle were harvested, washed with PBS and cell pellets lysed in 25 mM Hepes (pH 7.4), containing 2 mM dithiothreitol (DTT), 5 mM EDTA and […] digitonin. After centrifugation at 6,000 rpm for 10 min to remove cell debris and unruptured cells, an aliquot of the supernatant was added to a reaction buffer consisting of 25 mM Hepes (pH 7.4), 2 mM DTT, 5 mM EDTA, […] digitonin and 2.5 μg/ml DEVD-AFC. After 1 h incubation, the hydrolysis of substrate was quantified by fluorometry at excitation 400 mn and emission 505 nm. The blank reaction was done in the absence of cell lysate. Enzyme activity was expressed as the amount of fluorescence produced per mg protein/h.

LA-N-5 cells = experiment: DNA fragmentation assay (Hoechst 33285); assay type: cell-based, human; settings: LY-294002 30 μM, C2 ceramide 25 μM
Procedure: Quantification of DNA fragments was performed as described previously (Dawson et al., 1997). Briefly, cells were lysed in 5 mM Tris (pH 8.0) with 0.1% Triton X-100 and 20 mM EDTA and centrifuged at 20,000× g for 40 min at 4° C. For determination of DNA fragments lost in culture media, an aliquot of media was adjusted to a final concentration of 25 mM EDTA and centrifuged as described above. […] Fluorescence was detected by luminescent spectrometer using excitation 365 nm and emission 460 mn. DNA values were calculated using a standard curve obtained from the measurement of calf thymus DNA fluorescence.

Ras = Ras activation: guanine nucleotide binding and membrane association; assay type: cell-based, human; settings: C2 ceramide 30 μM
Procedure: (§1) Cells were harvested in a lysis buffer containing 10 mM Tris (pH 7.4), 1 mM EGTA, 1 mM EDTA, 1 mM DTT, 25 mM NaF, 2 mM MgCl2 and 10 μg/ml aprotinin, leupeptin and pepstatin. For subcellular fractionation, the postnuclear cell extract was centrifuged at 100,000× g for 45 min to obtain a cytosolic fraction and the pellet was washed and resuspended in a lysis buffer to obtain a membrane fraction. Whole cell lysate (for caspase-3 and pFLAG-PPT1) or fractionated proteins (for p21Ras and GAP-43) were resolved by 10%, 12% or 15% of SDS-PAGE for GAP-43, caspase-3 and pFLAG-PPT1, or Ras, respectively. For immunoblotting with anti-Akt antibodies, cells were lysed in RIPA buffer consisting of 50 mM Tris (pH 7.4), 150 MM NaCl, 1 mM EGTA, 1% Nonidet P-40, 0.25% sodium deoxycholate, 1 mM NaF and protease inhibitors. After lysis on ice for 1 h, cell debris was removed by centrifugation at 3,000 rpm for 5 min and an equal amount of postnuclear cell extract loaded on 8.5% SDS-PAGE. Resolved proteins were transferred to membrane overnight, blots incubated with a blocking solution for 1 h, incubated with appropriate primary and secondary antibodies and the signals detected by ECL.
Cells (10×10^6) were washed and incubated with 0.8 mCi/ml ^32Pi for 4 h in phosphate-free DMEM. […] Cell lysate was immunoprecipitated with monoclonal anti-Ras and bound nucleotides eluted with 1 mM EDTA/25 μM GDP and GTP were analyzed by TLC using 0.75 M KH2PO4 (pH 3.5). After autoradiography, the radioactive spots corresponding to GDP and GTP were counted.
p21^Ras is a key regulator in the signaling pathways involved in variety of events such as cell proliferation, transcription and apoptosis. […] Therefore, the subcellular localization of Ras protein was analyzed after C2-ceramide treatment. Cells were treated with C2 ceramide (30 μM), harvested at 10 min and 60 min and the membrane fraction (100,000× g pellet) analyzed by immunoblotting.

[2] = tested on: COS cells and embryonic neuron primary cultures
PPT1 = target: T1, PPT1 (Homo sapiens, UniProt P50897); experiment: In vitro PPT1 activity assay, [14C]palmitoyl peptide substrates, cell extract; settings: read-out: inhibition in an in vitro assay (PPT)
T1 sequence (P50897 28-306): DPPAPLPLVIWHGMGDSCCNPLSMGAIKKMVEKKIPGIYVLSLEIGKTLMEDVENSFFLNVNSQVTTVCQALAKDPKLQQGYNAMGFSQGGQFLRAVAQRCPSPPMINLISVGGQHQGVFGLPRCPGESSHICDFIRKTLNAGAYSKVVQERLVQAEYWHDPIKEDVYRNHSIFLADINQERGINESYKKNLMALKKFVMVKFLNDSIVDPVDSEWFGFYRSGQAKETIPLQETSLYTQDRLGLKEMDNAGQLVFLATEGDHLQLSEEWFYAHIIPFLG
Procedure: Incubations were performed for 20 min at 37° C. and reactions terminated by addition of 1 ml of chloroform/methanol/2N HCl (2:1:0.06, v/v). After the centrifugation, organic phase was analyzed by HPTLC using n-butanol/pyridine/acetic acid/water (45:30:9:36, v/v) and [14C] palmitate release was quantified.
The peptide sequence, AcGCVKIKK (a palmitoylation site in K-Ras), was modified by substituting the SH group of cysteine with NH2 to generate diamino propionic acid, which was then acylated with palmitate (AcG-palmitoyl diamino propionate-VKIKK). […] In another set of experiments, the unmodified peptide itself (AcGCVKIKK) was used as a control to exclude the possibility of a nonspecific effect of the sequence on PPT activity.
In brief, the cell sonicate was incubated in the assay mixture containing 50 mM sodium citrate (pH 4.0) and IRY([^4C]palmitoylated)CWLRR octapeptide (2,000-4,000 cpm) for 20 min at 37° C. For the pH profile of PPT1 activity, 50 mM sodium citrate (pH 5 or 6) or 50 mM Tris-HCl (pH 7.4) was used with other conditions remaining the same. After addition of 1 ml of chloroform/methanol/2N HCl (2:1:0.06, by volume) and centrifugation, the organic phase was dried, reconstituted sample analyzed by HPTLC using n-butanol/pyridine/acetic acid/water (45:30:9:36, by volume) and the radioactive spot corresponding to [^14C] palmitate was counted.
PPT1 activity was measured as described above. In brief, the cell sonicate was incubated in the assay mixture (50 mM sodium citrate (pH 4.0) for [^14C]palmitoylated [sequence] Po peptide substrate (3,000-4,000 cpm) or 50 mM Tris (pH 7.4) for [^14C]palmitoylated MLCCMRR GAP43 peptide substrate) for 20 min at 37° C. After organic extraction, samples were analyzed by HPTLC using n-butanol/pyridine/acetic acid/water (45:30:9:36, by volume) and the radioactive spot corresponding to [^14C] palmitate was counted.

Akt = Akt phosphorylation immunoblot; assay type: cell-based, human; settings: insulin 5 min; LY294002 pretreatment; vector-transfected cells
Procedure: as §1, with “After lysis on ice for 1 h, cell debris was removed by centrifugation at 3,000 rpm for 5 min and an equal amount of postnuclear cell extract loaded on 8.5% SDS-PAGE.” left out
To further investigate the downstream pathway by which PPT1 exerts protection against apoptosis, the activation of Akt was examined in control and PPT1 overexpressing cells. […] Therefore, the activation of Akt was analyzed by immunoblotting the cell extracts with an antibody specific to phosphorylated Akt (Ser473). […]

Compound: CCCCCCCCCCCCC/C=C/[C@@H](O)[C@H](CO)NC(C)=O [C2 ceramide]
- death of cells (MTT) ([1]; 30 μM C2-ceramide alone, 6 h): about 10%
- cell death (MTT assay) ([1]; LY-294002 30 μM, C2 ceramide 25 μM, 24 hrs): about 50%
- activation of caspase 3 (caspase 3): time-dependent activation of caspase 3
- DNA fragmentation (LA-N-5 cells): increase in DNA fragmentation
- GTP/(GDP+GTP) ratio increase over control (Ras; 10 min): 33%
- membrane-association of Ras (Ras; 10 min and 60 min): time-dependent increase in membrane-association of Ras
- GTP/(GDP+GTP) ratio increase over control (Ras; 60 min): 85%

Compound: CCCCCCCCCCCCCCCC(=O)NC[C@H](NC(=O)CNC(C)=O)C(=O)N[C@H](C(=O)N[C@@H](CCCCN)C(=O)N[C@H](C(=O)N[C@@H](CCCCN)C(=O)N[C@@H](CCCCN)C(N)=O)[C@@H](C)CC)C(C)C [DAP1, AcG-palmitoyl diamino propionate-VKIKK] (Ac-G[Dap](Palmitoyl)VKIKK-NH2)
- effect on COS cells and embryonic neuron primary cultures [2]: much less effect
- toxicity to non-dividing cells (non-dividing cells): does not appear to be toxic
- inhibition at 20 µM (PPT1): 85%

Compound: insulin: growth factor used as positive control for Akt activation
- phosphorylation of Akt (Ser473) (Akt): induced significant phosphorylation of Akt

Reference: patent US20030050236A1, “Compounds that enhance tumor death” (The University of Chicago, priority 2000, published 2003)
